Patent publication US9783527B2, “Indazole ureas and method of use” (AbbVie Inc., priority 2014, dated 2017)

How the values were obtained:
human Nav1.7 = human Nav1.7 (Homo sapiens (Human), UniProt Q15858); assay: FRET-based membrane potential assay, recombinant human sodium channel Nav1.7; type: cell-based; conditions: HEK293 cells stably expressing recombinant human Nav1.7; depolarization with veratridine (EC80) + scorpion venom
In short: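 IC50 derived by four-parameter Hill fit of percent inhibition of depolarization, measured as peak F440-480/F565-625 ratio over baseline. Stable human Nav1.7 HEK293 cells, dye-loaded with CC2-DMPE and DiSBAC2(3)/VABSC-1 at room temperature, received compound 3 min ahead of veratridine (EC80) plus scorpion venom.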

human Nav1.8 = human Nav1.8 (Homo sapiens (Human), UniProt Q9Y5Y9); assay: FRET-based membrane potential assay, recombinant human sodium channel Nav1.8; type: cell-based; conditions: HEK293 cells stably expressing recombinant human Nav1.8; depolarization with veratridine (EC80) + scorpion venom
Description: FRET-Based Membrane Potential Assays.
Recombinant, Human Sodium Channel, Nav1.8.
Two days prior to the experiment, frozen HEK293 cells stably expressing recombinant human Nav1.8 (Essen, Ann Arbor, Mich.) were quickly thawed and plated at 22,500 cells/well in growth medium [MEM (Invitrogen #11095) with 10% FBS (Invitrogen #10082), 1 mM sodium pyruvate (Invitrogen, #C11360), 10 units/mL penicillin/10 U/mL streptomycin/29.2 μg/mL glutamine ((PSG 1%, Invitrogen #10378), 400 μg/mL zeocin (Invitrogen #R250) in black-walled, clear-bottom 384-well poly-D-lysine-coated assay plates (Greiner Bio-One, Frickenhausen, Germany) and incubated in a humidified 5% CO2 incubator at 37° C. On the day of the assay, medium was removed by aspiration, and cells were washed with assay buffer [HBSS (Invitrogen, Carlsbad, Calif.) containing 20 mM HEPES (Invitrogen, Carlsbad, Calif.)]. After washing, 30 μL assay buffer containing the fluorescent voltage-sensor probe CC2-DMPE (Invitrogen, Carlsbad, Calif.) at 20 μM and 0.01% pluronic F-127 (Invitrogen, Carlsbad, Calif.) was added to the cells. Cells were incubated for 40 minutes at room temperature in the dark. Following the incubation, the cells were washed and 30 μL assay buffer containing 2.5 μM DiSBAC2(3) substrate (Invitrogen, Carlsbad, Calif.) and 0.5 mM VABSC-1 (Invitrogen, Carlsbad, Calif.) was added to the cells. The cells were incubated for 60 minutes at room temperature in the dark. Fluorescence readings were made using a FLIPR®^TETRA (Molecular Devices, Sunnyvale Calif.) equipped with voltage-sensor probe optics. The depolarizing agent, veratridine (Sigma-Aldrich, St. Louis, Mo.), was made up at 3× concentrations in assay buffer containing 1 mg/mL scorpion venom (SVqq, from Leiurus quinquestriatus; Sigma-Aldrich, St. Louis, Mo.). The assay agonist/opener concentration was determined each day using a 6-point veratridine concentration curve in duplicate, tested with three concentrations of tetracaine (0.1, 0.06, 0.01 μM all in 0.03% dimethyl sulfoxide) and 0.03% dimethyl sulfoxide control in assay buffer. […] Test compounds in the daughter plate were diluted to (˜3×) solutions in assay buffer immediately before assaying. Using the FLIPR®^TETRA, 20 μL of the (3×) compound solutions were first added to the cells, then 20 μL of depolarizing solution (3×EC80 veratridine+SVqq) were added 3 minutes later to activate the channel. Changes in fluorescence were measured at wavelengths of 440-480 nm and 565-625 nm over the course of the experimental run. Membrane depolarization was expressed as a ratio of the maximum F440-480 nm/F565-625 nm reading above average baseline F440-480 nm/F565-625 nm reading. IC50 values were calculated from curve fits of the ratio data using a four-parameter logistic Hill equation (Accelrys Assay Explorer 3.3 Client, Accelrys, San Diego, Calif.) with percent inhibition plotted against compound concentration.

Sequence of human Nav1.7 (Q15858 whole entry): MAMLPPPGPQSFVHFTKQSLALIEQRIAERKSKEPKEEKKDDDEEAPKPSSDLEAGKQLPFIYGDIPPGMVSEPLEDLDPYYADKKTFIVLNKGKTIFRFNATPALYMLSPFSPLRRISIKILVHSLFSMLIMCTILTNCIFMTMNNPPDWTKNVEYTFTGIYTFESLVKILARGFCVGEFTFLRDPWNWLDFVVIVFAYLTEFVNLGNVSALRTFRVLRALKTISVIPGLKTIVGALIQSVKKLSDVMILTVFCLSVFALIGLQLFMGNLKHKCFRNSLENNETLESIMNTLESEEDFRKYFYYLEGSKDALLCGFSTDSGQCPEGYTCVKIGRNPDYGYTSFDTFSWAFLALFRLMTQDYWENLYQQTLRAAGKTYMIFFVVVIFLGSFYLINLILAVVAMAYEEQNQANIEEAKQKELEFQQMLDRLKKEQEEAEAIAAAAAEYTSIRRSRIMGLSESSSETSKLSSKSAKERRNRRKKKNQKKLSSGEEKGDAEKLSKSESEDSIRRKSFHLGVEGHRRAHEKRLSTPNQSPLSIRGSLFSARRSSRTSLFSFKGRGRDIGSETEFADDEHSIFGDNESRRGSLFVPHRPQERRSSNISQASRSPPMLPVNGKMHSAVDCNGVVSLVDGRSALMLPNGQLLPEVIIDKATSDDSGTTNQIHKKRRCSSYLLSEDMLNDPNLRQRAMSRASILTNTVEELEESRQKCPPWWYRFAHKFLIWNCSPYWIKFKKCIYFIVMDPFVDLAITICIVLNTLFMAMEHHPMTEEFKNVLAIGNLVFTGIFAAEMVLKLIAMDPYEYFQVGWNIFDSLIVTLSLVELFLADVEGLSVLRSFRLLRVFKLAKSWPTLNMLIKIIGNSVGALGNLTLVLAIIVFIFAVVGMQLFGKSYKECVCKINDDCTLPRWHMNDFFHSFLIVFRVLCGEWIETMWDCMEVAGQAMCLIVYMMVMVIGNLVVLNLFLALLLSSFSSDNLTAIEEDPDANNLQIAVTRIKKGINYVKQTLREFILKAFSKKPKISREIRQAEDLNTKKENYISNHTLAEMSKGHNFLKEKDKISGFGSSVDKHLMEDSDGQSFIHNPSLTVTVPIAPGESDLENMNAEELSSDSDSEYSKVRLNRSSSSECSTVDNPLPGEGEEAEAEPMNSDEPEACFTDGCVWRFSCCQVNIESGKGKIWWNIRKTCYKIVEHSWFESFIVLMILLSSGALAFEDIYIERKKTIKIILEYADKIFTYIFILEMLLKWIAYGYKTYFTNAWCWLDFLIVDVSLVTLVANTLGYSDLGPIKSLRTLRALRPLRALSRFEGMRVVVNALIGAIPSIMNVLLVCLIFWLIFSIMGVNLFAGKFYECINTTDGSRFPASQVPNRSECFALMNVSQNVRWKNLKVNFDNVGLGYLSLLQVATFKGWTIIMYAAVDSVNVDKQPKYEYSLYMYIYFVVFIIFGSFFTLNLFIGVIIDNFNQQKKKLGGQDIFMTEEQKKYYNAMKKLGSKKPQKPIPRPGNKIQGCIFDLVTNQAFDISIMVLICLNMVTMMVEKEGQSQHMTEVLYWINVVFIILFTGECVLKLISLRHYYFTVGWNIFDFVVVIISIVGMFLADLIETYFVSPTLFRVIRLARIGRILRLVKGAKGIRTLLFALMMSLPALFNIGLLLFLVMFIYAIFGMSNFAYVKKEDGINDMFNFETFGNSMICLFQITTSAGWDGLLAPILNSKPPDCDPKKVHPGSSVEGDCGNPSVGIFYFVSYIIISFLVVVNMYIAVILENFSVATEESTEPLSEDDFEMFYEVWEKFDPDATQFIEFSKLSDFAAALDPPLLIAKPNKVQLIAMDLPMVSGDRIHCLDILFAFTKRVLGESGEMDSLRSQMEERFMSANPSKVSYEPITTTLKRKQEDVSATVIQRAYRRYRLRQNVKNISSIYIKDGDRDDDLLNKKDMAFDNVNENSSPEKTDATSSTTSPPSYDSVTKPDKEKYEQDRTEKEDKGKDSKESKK
Sequence of human Nav1.8 (Q9Y5Y9 whole entry): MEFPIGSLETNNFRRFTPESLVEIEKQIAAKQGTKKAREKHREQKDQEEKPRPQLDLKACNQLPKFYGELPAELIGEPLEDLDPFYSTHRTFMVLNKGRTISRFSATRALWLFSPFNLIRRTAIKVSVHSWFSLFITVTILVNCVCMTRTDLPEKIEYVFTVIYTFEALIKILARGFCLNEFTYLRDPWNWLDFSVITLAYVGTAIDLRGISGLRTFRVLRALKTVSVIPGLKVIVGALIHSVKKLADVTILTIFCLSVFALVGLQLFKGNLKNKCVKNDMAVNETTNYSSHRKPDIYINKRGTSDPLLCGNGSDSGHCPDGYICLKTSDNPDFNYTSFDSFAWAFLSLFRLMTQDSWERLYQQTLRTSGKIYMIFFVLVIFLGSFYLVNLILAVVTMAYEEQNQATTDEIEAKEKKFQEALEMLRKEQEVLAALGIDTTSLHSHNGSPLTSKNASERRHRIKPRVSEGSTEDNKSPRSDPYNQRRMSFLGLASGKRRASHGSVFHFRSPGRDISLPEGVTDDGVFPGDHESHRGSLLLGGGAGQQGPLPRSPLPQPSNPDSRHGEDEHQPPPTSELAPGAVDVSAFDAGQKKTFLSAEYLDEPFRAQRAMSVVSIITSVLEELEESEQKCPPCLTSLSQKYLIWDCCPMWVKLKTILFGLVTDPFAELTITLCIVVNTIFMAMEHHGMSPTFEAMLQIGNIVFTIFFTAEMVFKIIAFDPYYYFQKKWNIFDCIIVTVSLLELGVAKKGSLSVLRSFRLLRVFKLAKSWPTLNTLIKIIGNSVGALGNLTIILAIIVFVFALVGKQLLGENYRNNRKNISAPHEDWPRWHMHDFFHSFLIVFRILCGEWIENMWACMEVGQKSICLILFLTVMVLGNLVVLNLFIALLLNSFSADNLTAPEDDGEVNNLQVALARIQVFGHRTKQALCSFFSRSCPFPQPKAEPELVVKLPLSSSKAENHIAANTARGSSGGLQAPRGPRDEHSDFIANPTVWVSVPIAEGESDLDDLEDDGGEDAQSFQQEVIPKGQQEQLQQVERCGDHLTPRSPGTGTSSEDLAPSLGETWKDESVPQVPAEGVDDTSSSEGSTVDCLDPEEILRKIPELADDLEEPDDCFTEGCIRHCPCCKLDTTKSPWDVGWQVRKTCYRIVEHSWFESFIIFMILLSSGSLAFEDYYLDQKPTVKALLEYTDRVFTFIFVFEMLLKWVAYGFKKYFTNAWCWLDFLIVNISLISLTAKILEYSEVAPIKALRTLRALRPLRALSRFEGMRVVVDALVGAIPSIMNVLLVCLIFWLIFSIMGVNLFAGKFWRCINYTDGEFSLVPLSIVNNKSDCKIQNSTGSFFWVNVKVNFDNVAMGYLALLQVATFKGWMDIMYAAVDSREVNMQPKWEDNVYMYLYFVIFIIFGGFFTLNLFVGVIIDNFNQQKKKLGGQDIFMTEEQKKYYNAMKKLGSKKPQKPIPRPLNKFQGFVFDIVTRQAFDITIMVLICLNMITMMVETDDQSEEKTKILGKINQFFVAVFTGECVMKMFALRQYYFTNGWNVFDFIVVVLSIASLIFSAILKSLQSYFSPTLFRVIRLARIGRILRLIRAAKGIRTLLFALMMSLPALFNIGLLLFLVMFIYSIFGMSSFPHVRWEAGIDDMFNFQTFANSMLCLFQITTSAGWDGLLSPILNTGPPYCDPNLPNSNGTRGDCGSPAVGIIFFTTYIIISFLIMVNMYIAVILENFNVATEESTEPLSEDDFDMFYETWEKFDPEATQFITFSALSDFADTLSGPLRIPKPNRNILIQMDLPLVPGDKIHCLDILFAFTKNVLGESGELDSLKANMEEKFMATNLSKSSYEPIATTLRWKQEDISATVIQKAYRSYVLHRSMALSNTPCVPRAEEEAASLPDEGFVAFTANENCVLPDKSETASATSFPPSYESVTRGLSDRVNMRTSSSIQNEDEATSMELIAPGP

Structure (SMILES)	IC50 (human Nav1.7)	IC50 (human Nav1.8)
O=C1N(c2cccc3c2cnn3-c2ccccc2F)CCN1C1CN(S(=O)(=O)CC2CC2(Cl)Cl)C1 (centres unmarked) [Example 282, 1-(1-{[(2,2-dichlorocyclopropyl)methyl]sulfonyl}azetidin-3-yl)-3-[1-(2-fluorophenyl)-1H-indazol-4-yl]imidazolidin-2-one]	2.49 µM	1.41 µM
O=C1N(c2cccc3c2cnn3-c2ccccc2F)CCN1C1CN(S(=O)(=O)CC2CC2)C1 [Example 283, 1-{1-[(cyclopropylmethyl)sulfonyl]azetidin-3-yl}-3-[1-(2-fluorophenyl)-1H-indazol-4-yl]imidazolidin-2-one]	2.55 µM	2.21 µM
O=C1N(c2cccc3c2cnn3-c2ccccc2F)CCN1C1CN(S(=O)(=O)CC(F)(F)F)C1 [Example 284, 1-[1-(2-fluorophenyl)-1H-indazol-4-yl]-3-{1-[(2,2,2-trifluoroethyl)sulfonyl]azetidin-3-yl}imidazolidin-2-one]	2.43 µM	1.19 µM
CC(C)CS(=O)(=O)N1CC(N2CCN(c3cccc4c3cnn4-c3ccccc3F)C2=O)C1 [Example 285, 1-[1-(2-fluorophenyl)-1H-indazol-4-yl]-3-[1-(isobutylsulfonyl)azetidin-3-yl]imidazolidin-2-one]	2.52 µM	1.47 µM
CC(C)(C)OC(=O)CN1CCN(c2cccc3c2cnn3-c2ccccc2F)C1=O [Example 286, tert-butyl {3-[1-(2-fluorophenyl)-1H-indazol-4-yl]-2-oxoimidazolidin-1-yl}acetate]	3.17 µM	3 µM
CC(C)(C)OC(=O)CCN1CCN(c2cccc3c2cnn3-c2ccccc2F)C1=O [Example 289, tert-butyl 3-{3-[1-(2-fluorophenyl)-1H-indazol-4-yl]-2-oxoimidazolidin-1-yl}propanoate]	2.71 µM	2.05 µM
O=C(CN1CCN(c2cccc3c2cnn3-c2ccccc2F)C1=O)N1CCC[C@H](O)C1 [Example 290, 1-[1-(2-fluorophenyl)-1H-indazol-4-yl]-3-{2-[(3S)-3-hydroxypiperidin-1-yl]-2-oxoethyl}imidazolidin-2-one]	4.15 µM	13.5 µM
O=C(CN1CCN(c2cccc3c2cnn3-c2ccccc2F)C1=O)N1CC(O)C1 [Example 291, 1-[1-(2-fluorophenyl)-1H-indazol-4-yl]-3-[2-(3-hydroxyazetidin-1-yl)-2-oxoethyl]imidazolidin-2-one]	5.9 µM	13.1 µM
O=C(CCN1CCN(c2cccc3c2cnn3-c2ccccc2F)C1=O)N1CC[C@H](F)C1 [Example 292, 1-[1-(2-fluorophenyl)-1H-indazol-4-yl]-3-{3-[(3S)-3-fluoropyrrolidin-1-yl]-3-oxopropyl}imidazolidin-2-one]	2.96 µM	4.44 µM
O=C(CN1CCN(c2cccc3c2cnn3-c2ccccc2F)C1=O)N1CCOCC1 [Example 293, 1-[1-(2-fluorophenyl)-1H-indazol-4-yl]-3-[2-(morpholin-4-yl)-2-oxoethyl]imidazolidin-2-one]	3.67 µM	17.6 µM
O=C(CN1CCN(c2cccc3c2cnn3C2CCCCC2)C1=O)N1CC[C@H](F)C1 [Example 294, 1-(1-cyclohexyl-1H-indazol-4-yl)-3-{2-[(3S)-3-fluoropyrrolidin-1-yl]-2-oxoethyl}imidazolidin-2-one]	7.17 µM	18.3 µM
O=C(CN1CCN(c2cccc3c2cnn3-c2ccccc2F)C1=O)N1CCCCC1 [Example 295, 1-[1-(2-fluorophenyl)-1H-indazol-4-yl]-3-[2-oxo-2-(piperidin-1-yl)ethyl]imidazolidin-2-one]	2.51 µM	1.79 µM
O=C(CN1CCN(c2cccc3c2cnn3-c2ccccc2F)C1=O)N1CCCC(F)(F)C1 [Example 296, 1-[2-(3,3-difluoropiperidin-1-yl)-2-oxoethyl]-3-[1-(2-fluorophenyl)-1H-indazol-4-yl]imidazolidin-2-one]	3.18 µM	1.31 µM
